Patent US20250059215A1, “Trifluoroborate (BF3) Compositions For Use In Boron Neutron Capture Therapy and Methods Thereof” (TAE Life Sciences LLC, priority 2023, published 2025)

How the values were obtained:
U343MG cells = assay: Uptake of boron compounds in U343MG cells in vitro (Example 7); format: cell-based; conditions: 2.5 mM in HBSS, two (2) hrs; for uptake (boron) in U343MG cells: 37° C., boron by ICP-OES
Description: (§1) In this experiment, the uptake of BPA, FBH FBF, and LBH was carried out to determine which compounds show greater uptake FaDu and U343MG cells. The following protocols were used. Briefly, two (2) assays were performed, one using FaDu cells and the other using U343MG cells. FaDu and U343MG cells were harvested and washed with PBS twice. The count was adjusted to 2 million/ml in HBSS. Boron compounds were added to cells at the final concentration of 2.5 mM in HBSS and the cells were incubated at 37° C., in a humidified 5% CO2 atmosphere for two (2) hrs. with shaking. Following a two (2) hour incubation, cells were harvested and washed twice with ice cold PBS. Cells were then suspended in 1 ml ice cold PBS and a portion (50 μl) was lysed in RIPA buffer and protein content determined by BCA assay. The remaining portion (950 μl) was subjected to nitric acid lysis (66.7% acid at 80° C.). Boron measurements were carried out using ICP-OES. Boronophenylalanine (as fructose solution) was used as a control.

FaDu cells [1] = assay: Uptake of boron compounds in FaDu cells in vitro (Example 7); format: cell-based; conditions: 2.5 mM in HBSS, two (2) hrs; for uptake (boron) in FaDu cells: 37° C., boron by ICP-OES, FaDu compared with U343MG
Description: as §1

FaDu cells [2] = assay: Uptake of boron compounds in FaDu cells in vitro (Example 6); format: cell-based; conditions: 2.5 mM in HBSS, 37° C., two (2) hrs, boron by ICP-OES; compared with BPA (fructose solution)
Description: as §1, with “The” for “In this experiment, the uptake of BPA, FBH FBF, and LBH was carried out to determine which compounds show greater uptake FaDu and U343MG cells. The”, “Briefly,” for “Briefly, two (2) assays were performed, one using”, “FaDu” for “FaDu cells and the other using U343MG cells. FaDu and U343MG”

intracranial tumor = conditions: BNCT, beam directed to surgically exposed intracranial tumor, Japan 1968; cited from earlier work

Compound | uptake (boron) in U343MG cells (U343MG cells) | uptake (boron) in FaDu cells (FaDu cells [1]) | uptake relative to the other compounds, U343MG cells (U343MG cells; versus BPA, FBH, LBH) | uptake relative to the other compounds, FaDu cells (FaDu cells [1]; versus BPA, FBH, LBH) | uptake (boron) in FaDu cells (FaDu cells [2]) | 5-year survival rate (intracranial tumor) [%]
N[C@@H](Cc1ccc(B(O)O)cc1)C(=O)O [BPA, 4-Borono-L-phenylalanine, reference compound] | sufficient level uptake | slightly lower uptake | – | – | – | –
N[C@@H](Cc1ccccc1)[B-](F)(F)F.[K+] [FBF, [(1R)-1-amino-2-phenylethyl]trifluoroboranuide] | sufficient level uptake | slightly lower uptake | marginally greater uptake than the other compounds | marginally greater uptake than the other compounds | – | –
N[C@@H](Cc1ccccc1)B(O)O [FBH, L-phenylalanine boronic acid] | sufficient level uptake | slightly lower uptake | – | – | – | –
CC(C)C[C@H](N)B(O)O [LBH, L-leucine boronic acid] | sufficient level uptake | slightly lower uptake | – | – | lower | –
un-decahydrododecaborane thiol [BSH] | – | – | – | – | – | 58
